Measured values as given in US12492187B2, “Factor XI activation inhibitors” (Merck Sharp & Dohme LLC, priority 2020, dated 2025).

These compounds were tested against T1, Human coagulation factor (F)XI (Homo sapiens, UniProt P03951) (assay: Inhibition of FXIIa mediated activation of FXI (activation of human Factor XI to XIa by human Factor α-XIIa)). Conditions: human FXI pre-incubated with compound 30 min at 22° C., activation by human FXIIa 60 min, z-GPR-AFC substrate, fluorescence 405/510 nm, 4 parameter logistic fit; read-out: Inhibition of FXIIa meditated activation of FXI.
T1 construct: purchased Haematologic Technologies Inc. (FXI); Enzyme Research Laboratories (FXIIa) HCXI-150 (FXI); HFXIIa (FXIIa)
Format: biochemical
Method: Inhibition of FXIIa Mediated Activation of FXI
Activation of Human Factor XI to XIa by Human Factor α-XIIa
Assay was performed in 50 mM HEPES, 150 mM NaCl, 5 mM CaCl2, 0.1% PEG-8000, pH 7.4 buffer in black, flat-bottom, polystyrene microplates (Corning, Cat #3573). Serial dilutions (10-point, 3.333-fold) of the test compounds delivered as 10 mM DMSO stocks were prepared in the Labcyte Echo-qualified PP 384 well microplates (Labcyte, Cat #P-05525). Human coagulation factor (F)XI (Haematologic Technologies Inc., Cat #HCXI-150, concentration 46 nM, 19.5 uL) was pre-incubated with 0.5 uL of the test compounds for 30 min at 22° C. The activation was initiated by addition of 10 uL of human coagulation factor (F)XIIa (Enzyme Research Laboratories, Cat #HFXIIa, concentration 30 nM) and reaction proceeded for 60 min at 22° C., after which it was quenched by addition of a selective inhibitor of FXIIa (Compound 54 in WO2018093695) concentration 600 uM in DMSO, 1 uL). 10 min after the quench, 29 uL of z-GPR-AFC substrate (Sigma, Cat #C0980-10MG, concentration 200 uM) was added into each well and the detection reaction proceeded for 60 min at 22° C. Fluorescence at 405/510 nm was measured in end-point mode using an Envision plate-reader (Perkin Elmer). IDBS Activity Base XE (ABase) analysis using 4 parameter logistic fit was performed to determine Minimum, Maximum, EC50, and Slope Factor for each compound.

T1 sequence (P03951 19-625): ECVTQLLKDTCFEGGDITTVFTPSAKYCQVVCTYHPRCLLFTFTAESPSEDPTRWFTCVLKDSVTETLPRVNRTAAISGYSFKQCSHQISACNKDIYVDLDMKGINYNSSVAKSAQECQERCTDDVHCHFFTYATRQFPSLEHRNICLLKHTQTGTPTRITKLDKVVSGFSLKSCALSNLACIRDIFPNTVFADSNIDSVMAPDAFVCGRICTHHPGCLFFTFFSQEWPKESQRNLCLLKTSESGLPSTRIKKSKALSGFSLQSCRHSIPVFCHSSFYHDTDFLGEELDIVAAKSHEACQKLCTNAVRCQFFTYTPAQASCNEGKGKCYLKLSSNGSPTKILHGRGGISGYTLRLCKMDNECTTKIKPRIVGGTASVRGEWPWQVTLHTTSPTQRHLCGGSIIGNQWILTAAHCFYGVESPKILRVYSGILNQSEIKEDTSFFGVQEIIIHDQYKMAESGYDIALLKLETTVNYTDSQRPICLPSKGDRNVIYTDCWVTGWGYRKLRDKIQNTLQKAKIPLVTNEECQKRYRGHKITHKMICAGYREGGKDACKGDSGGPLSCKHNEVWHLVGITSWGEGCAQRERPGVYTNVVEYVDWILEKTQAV

| EC50 | Compound |
| --- | --- |
| 54.4 nM | Cc1cnc(C(=O)N2CCC(C#N)(c3ccccc3)CC2)cc1C(=O)N1CCC2c3ccc(C#N)cc3OC2C1 (centres unmarked) [Example 22, 2-[2-(4-cyano-4-phenyl-piperidine-1-carbonyl)-5-methyl-pyridin-1-ium-4-carbonyl]-3,4,4a,9a-tetrahydro-1H-benzofuro[2,3-c]pyridine-7-carbonitrile; 2,2,2-trifluoroacetate] |
| 75.1 nM | Cc1cnc(C(=O)N2CCC(C#N)(c3ccccc3)CC2)cc1C(=O)N1CCC2c3ccc(Cl)cc3OC2C1 (centres unmarked) [Example 23, 1-[4-(7-chloro-3,4,4a,9a-tetrahydro-1H-benzofuro[2,3-c]pyridine-2-carbonyl)-5-methyl-pyridin-1-ium-2-carbonyl]-4-phenyl-piperidine-4-carbonitrile; 2,2,2-trifluoroacetate] |
| 62.2 nM | Cc1cnc(C(=O)N2CCC(C#N)(c3ccccc3)CC2)cc1C(=O)N1CCC2c3cc(F)c(F)cc3OC2C1 (centres unmarked) [Example 24, 1-[4-(6,7-difluoro-3,4,4a,9a-tetrahydro-1H-benzofuro[2,3-c]pyridine-2-carbonyl)-5-methyl-pyridin-1-ium-2-carbonyl]-4-phenyl-piperidine-4-carbonitrile; 2,2,2-trifluoroacetate] |
| 29.4 nM | CC(C)(C)C1CCN(C(=O)c2cc(C(=O)N3CCC(C#N)(c4ccccc4)CC3)ncc2C#N)CC1 [Example 25, 4-(4-tert-butylpiperidine-1-carbonyl)-6-(4-cyano-4-phenyl-piperidine-1-carbonyl)pyridin-1-ium-3-carbonitrile; 2,2,2-trifluoroacetate] |
| 105 nM | Cc1nc(C(=O)N2CCC(C#N)(c3ccccc3)CC2)cc(C(=O)N2CCC(N3CCC(F)(F)C3)CC2)c1C [Example 26, 1-[4-[4-(3,3-difluoropyrrolidin-1-ium-1-yl)piperidine-1-carbonyl]-5,6-dimethyl-pyridine-2-carbonyl]-4-phenyl-piperidine-4-carbonitrile; 2,2,2-trifluoroacetate] |
| 25.1 nM | Cc1nc(C(=O)N2CCC(C#N)(c3ccccc3)CC2)cc(C(=O)N2CCC(C(C)(C)C)CC2)c1C [Example 27, 1-[4-(4-tert-butylpiperidine-1-carbonyl)-5,6-dimethyl-pyridine-2-carbonyl] -4-phenyl-piperidine-4-carbonitrile] |
| 62.2 nM | Cc1nc(C(=O)N2CCC(C#N)(c3ccccc3)CC2)cc(C(=O)N2CCC(Cc3nccs3)CC2)c1C [Example 28, 1-[5,6-dimethyl-4-[4-(thiazol-2-ylmethyl)piperidine-1-carbonyl]pyridine-2-carbonyl]-4-phenyl-piperidine-4-carbonitrile] |
| 41.1 nM | Cc1nc(C(=O)N2CCC(C#N)(c3ccccc3)CC2)cc(C(=O)N2CCN(C3(c4ccccc4)CC3)CC2)c1C [Example 29, 1-[5,6-dimethyl-4-[4-(1-phenylcyclopropyl)piperazine-1-carbonyl]pyridine-2-carbonyl]-4-phenyl-piperidine-4-carbonitrile] |
| 47.8 nM | Cc1nc(C(=O)N2CCC(C#N)(c3ccccc3)CC2)cc(C(=O)N2CCC(Cc3ccccc3)CC2)c1C [Example 30, 1-[4-(4-benzylpiperidine-1-carbonyl)-5,6-dimethyl-pyridine-2-carbonyl]-4-phenyl-piperidine-4-carbonitrile] |
| 124 nM | Cc1nc(C(=O)N2CCC(C#N)(c3ccccc3)CC2)cc(C(=O)N2CCC(C)(c3ccccc3)CC2)c1C [Example 31, 1-[5,6-dimethyl-4-(4-methyl-4-phenyl-piperidine-1-carbonyl)pyridine-2-carbonyl]-4-phenyl-piperidine-4-carbonitrile] |
| 36.6 nM | Cc1nc(C(=O)N2CCC(C#N)(c3ccccc3)CC2)cc(C(=O)N2CCC(c3ccccc3)CC2)c1C [Example 32, 1-[5,6-dimethyl-4-(4-phenylpiperidine-1-carbonyl)pyridine-2-carbonyl]-4-phenyl-piperidine-4-carbonitrile] |
